The record followed here is US12371454B2, “Cyclic peptide compound having Kras inhibitory action” (priority 2019, dated 2025).

In this assay the target is T1, Kras and SOS1 (biotin-tagged human Kras loaded with GDP, His-tagged human SOS1) (Homo sapiens, UniProt P01116, G12D).
T1 construct: made in house; host or cells: E. coli (stated for Kras only)
The experiment in a line: Protein-protein interaction inhibition between Kras and SOS1 (KrasGl2D-SOS PPI) using AlphaScreen. The settings on record: AlphaScreen; biotin-tagged human Kras loaded with GDP, His-tagged human SOS1; read-out: KRAS G12D-SOS PPI IC50. It counts as binding. The procedure, abridged:
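Donor beads (nickel) hold His-SOS1; acceptor beads (streptavidin) hold biotin-Kras bound to GDP. Signal measured at 520-620 nm following 680 nm excitation.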
Background: In Alpha technology, singlet oxygen from a donor bead excites a nearby acceptor bead.

Starred links: 1 amine or outer side, 2 acyl side, 3 side chain; linkers in the order of their positions; H or OH if unused. Positions of bridges follow the written chain, without caps; N, C: chain ends. Non-standard residues stand in square brackets, D forms with d. Residues, ends and D or L forms follow the SMILES beside them. *: point of attachment. hPhe(3-Cl-4-CF3) = N[C@@H](CCc1ccc(C(F)(F)F)c(Cl)c1)C(=O)O; NMeDab(N,N-(CH2CF2CH2)) = CN[C@@H](CCN1CC(F)(F)C1)C(=O)O; hPhe(3-F,4-CF3) = N[C@@H](CCc1ccc(C(F)(F)F)c(F)c1)C(=O)O; X38 = CN([C@@H](Cc1cccc(OC(F)(F)F)c1)C(=O)[*:2])[*:1]; hPhe(4-CF3) = N[C@@H](CCc1ccc(C(F)(F)F)cc1)C(=O)O; NMePhe(4-Cl) = CN[C@@H](Cc1ccc(Cl)cc1)C(=O)O; NMePhe(4-F) = CN[C@@H](Cc1ccc(F)cc1)C(=O)O; NMeGly(cPent) = CN[C@H](C(=O)O)C1CCCC1; Phe(3-I) = N[C@@H](Cc1cccc(I)c1)C(=O)O; dβ3hPip = O=C(C[C@H]1CCCCN1[*:1])[*:2]; NMeCha = CN[C@@H](CC1CCCCC1)C(=O)O; NMeChg = CN[C@H](C(=O)O)C1CCCCC1; NMeF = CN[C@@H](Cc1ccccc1)C(=O)O; NMeD = CN[C@@H](CC(=O)O)C(=O)O; NMeL = CN[C@@H](CC(C)C)C(=O)O; NMeV = CN[C@H](C(=O)O)C(C)C; d(β3hA) = C[C@@H](N)CC(=O)O; Iva = CC[C@](C)(N)C(=O)O; NMeA = CN[C@@H](C)C(=O)O; Nle = CCCC[C@H](N)C(=O)O; Piperidide = C1CCN(*)CC1; Pyrrolidide = C1CCN(*)C1; Ac5c = NC1(C(=O)O)CCCC1; Ac4c = NC1(C(=O)O)CCC1; Sar = CNCC(=O)O; Propyl = CCC*

T1 sequence (P01116 1-188 isoform P01116-2 G12D): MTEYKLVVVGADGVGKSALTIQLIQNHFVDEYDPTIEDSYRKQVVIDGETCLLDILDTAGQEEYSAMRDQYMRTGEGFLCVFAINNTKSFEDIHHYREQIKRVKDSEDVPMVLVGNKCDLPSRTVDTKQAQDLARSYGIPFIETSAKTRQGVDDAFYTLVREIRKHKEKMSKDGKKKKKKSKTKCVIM

For the molecule `CC[C@H](C)[C@@H]1NC(=O)[C@H](CC(C)C)N(C)C(=O)C[C@@H](C)NC(=O)[C@H](CC(C)C)N(C)C(=O)C2(CCC2)NC(=O)[C@@H]2CCCN2C(=O)[C@H](CCc2ccc(C(F)(F)F)c(F)c2)NC(=O)CN(C)C(=O)[C@H](CC2CCCCC2)N(C)C(=O)CN(C)C(=O)CN(C)C1=O` [Compound 133] (cyclo([Ac4c][NMeL][d(β3hA)][NMeL]I[Sar][Sar][NMeCha][Sar][hPhe(3-F,4-CF3)]P)), the half-inhibitory concentration (IC50) worked out at 23 nM.
With `CC[C@H](C)[C@@H]1NC(=O)[C@H](C)N(C)C(=O)C[C@@H](C(=O)N2CCCCC2)N(C)C(=O)[C@H](C(C)C)N(C)C(=O)C2(CCCC2)NC(=O)[C@@H]2CCCN2C(=O)[C@H](CCc2ccc(C(F)(F)F)c(Cl)c2)NC(=O)[C@H]2CCCN2C(=O)[C@H](CC2CCCCC2)N(C)C(=O)CN(C)C(=O)CN(C)C1=O` [Compound 135] ([NMeA]I[Sar][Sar][NMeCha][dP][hPhe(3-Cl-4-CF3)]P[Ac5c][NMeV][NMeD]-Piperidide; lactam N-11) the figure was 38 nM; with `CC[C@H](C)[C@@H]1NC(=O)[C@H](CC(C)C)N(C)C(=O)C[C@H]2CCCCN2C(=O)[C@H](C(C)C)N(C)C(=O)C2(CCCC2)NC(=O)[C@@H]2CCCN2C(=O)[C@H](CCc2ccc(C(F)(F)F)c(F)c2)NC(=O)CN(C)C(=O)[C@H](CC2CCCCC2)N(C)C(=O)CN(C)C(=O)CN(C)C1=O` [Compound 142] (cyclo([Ac5c][NMeV][dβ3hPip][NMeL]I[Sar][Sar][NMeCha][Sar][hPhe(3-F,4-CF3)]P)), 38 nM; with `CCCC[C@@H]1NC(=O)[C@H](Cc2cccc(I)c2)NC(=O)CN(C)C(=O)[C@H](Cc2ccc(Cl)cc2)N(C)C(=O)CN(C)C(=O)CN(C)C(=O)[C@H]([C@@H](C)CC)NC(=O)[C@H](CC(C)C)N(C)C(=O)C[C@@H](C(=O)N2CCCCC2)N(C)C(=O)[C@H](CC(C)C)NC(=O)[C@H](Cc2cccc(OC(F)(F)F)c2)N(C)C1=O` [Compound 143] ([NMeL]I[Sar][Sar][NMePhe(4-Cl)][Sar][Phe(3-I)][Nle][X38]L[NMeD]-Piperidide; lactam N-11), 68 nM.
To `CC[C@H](C)[C@@H]1NC(=O)[C@H](C)N(C)C(=O)C[C@@H](C)NC(=O)[C@H](C2CCCC2)N(C)C(=O)C2(CCCC2)NC(=O)[C@@H]2CCCN2C(=O)[C@H](CCc2ccc(C(F)(F)F)c(Cl)c2)NC(=O)CN(C)C(=O)[C@H](Cc2ccc(F)cc2)N(C)C(=O)[C@@H]2CCCN2C(=O)CN(C)C1=O` [Compound 146] (cyclo([Ac5c][NMeGly(cPent)][d(β3hA)][NMeA]I[Sar]P[NMePhe(4-F)][Sar][hPhe(3-Cl-4-CF3)]P)) belongs 4 nM; to `COC[C@@H]1NC(=O)[C@H](CC(C)C)N(C)C(=O)C[C@@H](C(=O)N2CCCCC2)N(C)C(=O)[C@H](C2CCCCC2)N(C)C(=O)C2(CCCC2)NC(=O)[C@@H]2CCCN2C(=O)[C@H](CCc2ccc(C(F)(F)F)c(Cl)c2)NC(=O)CN(C)C(=O)[C@H](CC2CCCCC2)N(C)C(=O)CN(C)C(=O)CN(C)C1=O` [Compound 148] ([NMeL]S(Me)[Sar][Sar][NMeCha][Sar][hPhe(3-Cl-4-CF3)]P[Ac5c][NMeChg][NMeD]-Piperidide; lactam N-11), 1.8 nM.
With `CC[C@H](C)[C@@H]1NC(=O)[C@H](CC(C)C)N(C)C(=O)C[C@@H](C)NC(=O)[C@H](C(C)C)N(C)C(=O)[C@](C)(CC)NC(=O)[C@@H]2CCCN2C(=O)[C@H](CCc2ccc(C(F)(F)F)c(Cl)c2)NC(=O)CN(C)C(=O)[C@H](CC2CCCCC2)N(C)C(=O)CN(C)C(=O)CN(C)C1=O` [Compound 149] (cyclo(I[Sar][Sar][NMeCha][Sar][hPhe(3-Cl-4-CF3)]P[Iva][NMeV][d(β3hA)][NMeL])) the figure was 51 nM; with `CC[C@H](C)[C@@H]1NC(=O)[C@H](C)N(C)C(=O)C[C@@H](C(=O)N2CCCC2)NC(=O)[C@H](C(C)C)N(C)C(=O)[C@H](Cc2ccccc2)N(C)C(=O)[C@H](CC(C)C)N(C)C(=O)[C@H](CCc2ccc(C(F)(F)F)cc2)NC(=O)CN(C)C(=O)[C@H](Cc2ccc(Cl)cc2)N(C)C(=O)CN(C)C(=O)CN(C)C1=O` [Compound 152] ([NMeA]I[Sar][Sar][NMePhe(4-Cl)][Sar][hPhe(4-CF3)][NMeL][NMeF][NMeV]D-Pyrrolidide; lactam N-11), 110 nM; with `CCCOC[C@@H]1NC(=O)[C@H](CCN2CC(F)(F)C2)N(C)C(=O)[C@H](CCc2ccc(C(F)(F)F)c(Cl)c2)NC(=O)CN(C)C(=O)[C@H](CC2CCCCC2)N(C)C(=O)CN(C)C(=O)CN(C)C(=O)[C@H]([C@@H](C)CC)NC(=O)[C@H](C)N(C)C(=O)C[C@@H](C(=O)N2CCCCC2)N(C)C(=O)[C@H](C(C)C)N(C)C1=O` [Compound 154] ([NMeA]I[Sar][Sar][NMeCha][Sar][hPhe(3-Cl-4-CF3)][NMeDab(N,N-(CH2CF2CH2))]S(Propyl)[NMeV][NMeD]-Piperidide; lactam N-11), 4.8 nM.

Usually IC50 stands for the point on the concentration scale where inhibition reaches its midpoint.
